According to patent US20220178944A1, “METHODS FOR IDENTIFYING DIFFERENTIAL HISTONE RETENTION FOR EPIGENETIC ALTERATIONS IN GERMLINE DNA OF ANIMALS” (Washington State University, priority 2020, published 2022):

How the values were obtained:
[1] = test system: Sprague Dawley rats; test: Histopathology and disease classification, F3 generation atrazine lineage males; type: in vivo, rat
Protocol: Female and male rats of an outbred strain Hsd:Sprague Dawley SD (Harlan) at 70 to 100 days of age were fed ad lib with a standard rat diet and ad lib tap water. Timed-pregnant females on days 8 through 14 of gestation were administered daily intraperitoneal injections of atrazine (25 mg/kg BW/day dissolved in PBS) (Chem Service, Westchester Pa.) or dimethyl sulfoxide (DMSO) or as previously described. Twenty-five mg/kg for atrazine is 4% of rat oral LD50 and 50% of NOAEL.
The gestating female rats treated were designated as the F0 generation. F1-F3 generation control and atrazine lineages were housed in the same room and racks with lighting, food and water.
Rats were euthanized at 12 months of age by CO2 inhalation and cervical dislocation for tissue harvest. Testis, prostate, ovary, kidney, and gonadal fat pads were fixed in Bouin's solution (Sigma) followed by 70% ethanol, then processed for paraffin embedding and hematoxylin, and eosin (H & E) staining by standard procedures for histopathological examination. Paraffin five micron sections were processed and stained (Nationwide Histology, Spokane Wash., USA).
Full necropsies were performed as required on animals that died prior to the time of scheduled sacrifice at one year and tumor classifications were performed.
Upon dissection a brief examination of abdominal and thoracic organs was performed to look for obvious abnormalities. The tissues evaluated histologically were selected from previous literature showing them to have pathology in transgenerational models, with an emphasis on reproductive organs. Histopathology readers were trained to recognize the specific abnormalities evaluated for this study in rat testis, ventral prostate and kidney (see below). Two different readers initially evaluated the tissues. […] Readers were blinded to the exposure groups. A set of quality control (QC) slides was generated for each tissue and was read by each reader prior to evaluating any set of experimental slides. These QC slide results are monitored for reader accuracy and concordance.
Testis histopathology criteria included the presence of vacuoles in the seminiferous tubules, azoospermic atretic seminiferous tubules, and ‘other’ abnormalities including sloughed spermatogenic cells in the center of the tubule and a lack of a tubule lumen. Prostate histopathology criteria included the presence of vacuoles in the glandular epithelium, atrophic glandular epithelium and hyperplasia of prostatic gland epithelium (FIG. 25). Kidney histopathology criteria included reduced size of glomerulus, thickened Bowman's capsule, and the presence of proteinaceous fluid-filled cysts >50 μm in diameter (FIG. 25). A cut-off was established to declare a tissue ‘diseased’ based on the mean number of histopathological abnormalities plus two standard deviations from the mean of control group tissues, as assessed by each of the individual readers. This number (i.e. greater than two standard deviations) was used to classify rats into those with and without testis, prostate, or kidney disease in the F3 generation lineage. A rat tissue section was finally declared ‘diseased’ only when at least two of the three readers marked the same tissue section ‘diseased’.
Lean phenotype was assessed with a decrease in adipocyte size (area), body mass index (BMI) and abdominal adiposity. BMI was calculated with weight (g)/length (cm)^2 with the length of the animal measured from the nose to the base of the tail. Gonadal fat pad slides were imaged using a Nikon Eclipse E800 microscope (10×) with an AVT Prosilica GE1050C Color GigE camera. Five field of view image captures were taken per slide in varying parts of the fat pad. Adipocyte size was measured converting pixels into microns using Adiposoft. Measurements of the 20 largest cells from each image for a total of 100 were averaged as hypertrophic cells are the most metabolically relevant and susceptible to cell death. […]

[2] = Glyphosate metabolism turnover (half-life); type: in vivo; conditions: worked out from 2-4 half-lives per 24-hour period
[3] = test system: sperm DNA methylation; test: Sperm differential DNA methylation regions (DMRs), MeDIP-Seq, glyphosate versus control lineage; type: in vivo, rat; conditions: F3 generation males, edgeR p<1e-05
Text: (§1) Outbred Sprague Dawley SD male and female rats were fed a standard diet with water ad lib and mated. […] Female and male rats of an outbred strain Hsd:Sprague Dawley SD (Harlan) at 70 to 100 days of age were fed ad lib with a standard rat diet and ad lib tap water.
(§2) The gestating female rats treated were designated as the F0 generation. Breeding for each generation occurred at 70-90 days and 5 different litters were generated with no cousin or sibling breeding to avoid any inbreeding artifacts. Litters were culled to 10 pups (5 males and 5 females) between days 3-5 of birth to avoid litter effects. […] The F3 generation males were aged to 1 year of age for pathology analysis.
Briefly, the epididymis was dissected free of fat and connective tissue, then, after cutting open the cauda, placed into 6 ml of phosphate buffer saline (PBS) for 20 minutes at room temperature. Further incubation at 4° C. will immobilize the sperm. The tissue was then minced, the released sperm pelleted at 4° C. 3,000×g for 10 min, then resuspended in NIM buffer and stored at −80° C. for further processing.
An appropriate amount of rat sperm suspension was used for DNA extraction. […]
Genomic DNA was sonicated and run on 1.5% agarose gel for fragment size verification. […] DNA concentration was measured in Qubit (Life Technologies) with the ssDNA kit (Molecular Probes Q10212). […]

[4] = test system: sperm histone H3 retention sites; test: Sperm differential histone retention regions (DHRs), histone H3 ChIP-Seq, glyphosate versus control lineage; type: in vivo, rat; conditions: F3 generation males; F0 25 mg/kg/day i.p. gestation days 8-14; edgeR p<1e-05
Text: as §1, §2
Histone chromatin immunoprecipitation with genomic DNA was performed. Individual rat sperm were collected, and the sperm counts were determined for each individual. A sonication of 10 seconds was performed for each sperm sample to remove any somatic cell contamination using a Sonic Dismembrator Model 300 (Thermo Scientific Fisher, USA) then centrifuged 1800×g for 5 minutes at 4° C. then resuspended and counted individually on a Neubauer counting chamber (Propper manufacturing Co., Inc., New York, USA). The sperm samples were reconstituted up to 1 ml with PBS (phosphate buffered saline). […]

[5] = cited from earlier work
[6] = in vivo; cited from earlier work
[7] = F3 generation atrazine lineage males, 1 year of age, # evaluated 55

CCNc1nc(Cl)nc(NC(C)C)n1 [atrazine]
prevalence of transgenerational lean pathology in the exposed population ([1]; F3 generation atrazine lineage): nearly a third of the animals
# affected, Kidney disease [1, 7]: 8
# affected, Lean [1, 7]: 15
# affected, Obese [1, 7]: 4
# affected, Prostate disease [1, 7]: 4
# affected, Testis disease [1, 7]: 12
# affected, Tumor [1, 7]: 1
# affected, Puberty Late ([1]; F3 generation atrazine lineage males, # evaluated 55): 10
# affected, Puberty Early ([1]; F3 generation atrazine lineage males, F0 25 mg/kg/day i.p. gestation days 8-14, # evaluated 55): 0

O=C(O)CNCP(=O)(O)O [glyphosate]
daily decrease of concentration during the transient exposure period [2]: 75-90%
total number of sperm DMRs, control versus glyphosate (All Window) ([3]; F0 25 mg/kg/day i.p. gestation days 8-14): 340
number of sperm DMRs with multiple neighboring 1000 bp windows, control versus glyphosate [3]: 11
number of sperm DHRs, glyphosate versus control [4]: 836
No Observational Adverse Effect Level (NOAEL) dose ([5]; direct exposure, mammalian rat model): 50 mg/kg per day
No Observable Adverse Effect Level (NOAEL) exposure ([5]; rat, in vivo): 50 mg/kg/day
half-life (metabolism turnover) [6]: 5 to 10 h
